The target of the assay is T1, MAT2A (Homo sapiens, UniProt P31153).
T1 construct: purchased BPS Bioscience (USA) 71401
T1 sequence (P31153 whole entry): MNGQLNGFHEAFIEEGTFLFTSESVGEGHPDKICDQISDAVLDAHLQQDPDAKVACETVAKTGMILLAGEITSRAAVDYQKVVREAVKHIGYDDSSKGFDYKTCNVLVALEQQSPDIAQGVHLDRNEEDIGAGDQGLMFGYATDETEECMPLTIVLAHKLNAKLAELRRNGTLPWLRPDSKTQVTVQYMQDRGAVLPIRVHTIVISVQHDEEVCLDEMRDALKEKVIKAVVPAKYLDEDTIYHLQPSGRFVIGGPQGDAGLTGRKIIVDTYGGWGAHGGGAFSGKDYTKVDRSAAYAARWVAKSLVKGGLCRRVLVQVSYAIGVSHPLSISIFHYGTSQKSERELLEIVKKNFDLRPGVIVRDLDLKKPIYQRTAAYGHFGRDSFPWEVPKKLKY
Description: MAT2A inhibitory activity, colorimetric phosphate detection (PiColorLock) enzyme assay. The class given is biochemical. The settings on record: Test Condition 1 or 2 (not stated which per compound); absorbance at 630 nm. Here is the method:
In vitro assay: Methionine and adenosine triphosphate (ATP) are converted into S-adenosylmethionine (SAM) and inorganic phosphate (pi) via the catalytic action of methionine adenosyltransferase 2A (MAT2A). The produced pi is detected by the PiColorLock™ Phosphate Detection Reagent, which is a colorimetric assay, and the activity of MAT2A can be evaluated according to the amount of pi generated during the enzyme reaction. Each compound was evaluated under Test Condition 1 or 2 as described below.
• Concentration of MAT2A inhibitor: maximum concentration of 50 µM, 5-fold dilution (7 groups in total) • MAT2A concentration: 12 ng/µL • ATP and Met concentration: 100 µM, 80 µM
• Concentration of MAT2A inhibitor: maximum concentration of 1 µM, 3-fold dilution (7 groups in total) • MAT2A concentration: 4 ng/µL • ATP and Met concentration: 300 µM, 150 µM • Reagents: Methionine (catalog number M5308) and ATP (catalog number A2383) were purchased from Sigma-Aldrich (USA). MAT2A (catalog number 71401) was purchased from BPS Bioscience (USA), and PiColorLock™ Phosphate Detection Reagent (catalog number 303-0030) was purchased from Novus (USA).
Assay buffer composition: 50 mM Tris-HCl pH 8.0, 50 mM KCI, 15 mM MgCl2, 0.3 mM EDTA, 0.005 % (w/v) BSA
Experimental procedure: Each compound was diluted 5-fold or 3-fold based on the maximum concentration (5 mM or 1 mM or 0.1 mM) using DMSO. The diluted compounds were diluted 20-fold using assay buffer, and then mixed at a volume ratio of 1:2 with MAT2A (30 ng/µL or 10 ng/µL) diluted with assay buffer and treated for 30 minutes at room temperature. The negative control group is a group untreated with both the MAT2A enzyme and the compound according to an embodiment of the present application, and the positive control group is a group treated only with the MAT2A enzyme and untreated with the compound according to an embodiment of the present application.
In each well of a 384-well plate, 30 µL of the mixed solution and 20 µL of a 1:1 mixed solution of ATP (0.5 mM or 1.5 mM) and Met (0.4 mM or 0.75 mM) were mixed and then treated for 1 hour at room temperature. After the enzyme reaction, 13 µL of a 100:1 mixed solution of PiColorLockTM and Accelerator was treated in each well and reacted for 5 minutes at room temperature. After treating 5 µL of Stabilizer in each well and reacting for 25 minutes at room temperature, the absorbance at 630 nm was measured using SpectraMax M4 (Molecular Devices, USA) to calculate the IC50 value of the compound.
Analysis method: The enzyme activity (%) of each experimental group was calculated as {(average O.D. of compound-treated group - average O.D. of negative control group)/(average O.D. of positive control group - average O.D. of negative control group)} * 100. After preparing a dose-response curve (4-parameter) using the enzyme activity according to the treatment concentration of each compound in GraphPad Prism 9, the 50 % of enzyme inhibitory activity value (IC50) was calculated through non-linear regression analysis. The IC50 results measured for the MAT2A activity inhibitory ability of the compounds according to an embodiment of the present application are shown in Table 2 (+++: more than 1 to 100 nM, ++: more than 100 to 1,000 nM, +: more than 1,000 to 10,000 nM, -: more than 10,000 nM).
One may read the IC50 as the concentration that gives 50% inhibition. On to `COCCNCc1cn2c(n1)c(=O)n(-c1cccnc1C)c1cc(Cl)ccc12` [Example 64, 7-chloro-2-(((2-methoxyethyl)amino)methyl)-5-(2-methylpyridin-3-yl)imidazo[1,2-a]quinoxalin-4(5H)-one], for which the IC50 was 0.1 to 1 µM. As for `Cc1ncccc1-n1c(=O)c2nccn2c2c(N3CCCC3)cc(Cl)cc21` [Example 104, 7-chloro-5-(2-methylpyridin-3-yl)-9-(pyrrolidine-1-yl)imidazo[1,2-a]quinoxalin-4(5H)-one], the figure is more than 10 µM. As for `Cc1ncccc1-n1c(=O)c2nc(CN3CCC4(CC3)COC4)cn2c2ccc(Cl)cc21` [Example 63, 2-((2-oxa-7-azaspiro[3.5]nonane-7-yl)methyl)-7-chloro-5-(2-methylpyridin-3-yl)imidazo[1,2-a]quinoxalin-4(5H)-one], the figure is more than 10 µM.

In turn, `Cc1cc2c(cc1Br)n(-c1cccnc1O)c(=O)c1nccn12` [Example 90, 7-bromo-5-(2-hydroxypyridin-3-yl)-8-methylimidazo[1,2-a]quinoxalin-4(5H)-one] showed an IC50 of more than 10 µM. Under `Cc1ncccc1-n1c(=O)c2nccn2c2cc(Cl)c(Br)cc21` (atropisomer, axis not shown; (Ra)) [Example 80, (Ra)-7-bromo-8-chloro-5-(2-methylpyridin-3-yl)imidazo[1,2-a]quinoxalin-4(5H)-one] stands more than 10 µM; under `Cc1ccccc1-n1c(=O)c2nccn2c2ccc(C(C)C)nc21` [Example 47, 7-isopropyl-5-(o-tolyl)imidazo[1,2-a]pyrido[2,3-e]pyrazin-4(5H)-one], more than 10 µM; under `Cc1nccnc1-n1c(=O)c2nccn2c2ccc(Cl)cc21` [Example 48, 7-chloro-5-(3-methylpyrazin-2-yl)imidazo[1,2-a]quinoxalin-4(5H)-one], 0.1 to 1 µM. As for `Cc1ncccc1-n1c(=O)c2nc(CN3CCOCC3)cn2c2ccc(Cl)cc21` [Example 62, 7-chloro-5-(2-methylpyridin-3-yl)-2-(morpholinomethyl)imidazo[1,2-a]quinoxalin-4(5H)-one], the figure is 0.1 to 1 µM. Take `CCc1ncccc1-n1c(=O)c2nccn2c2cc(Cl)c(C(F)(F)F)cc21` (atropisomer, axis not shown; (Ra)) [Example 111, (Ra)-8-chloro-5-(2-ethylpyridin-3-yl)-7-(trifluoromethyl)imidazo[1,2-a]quinoxalin-4(5H)-one]: the IC50 was more than 10 µM. As for `CS(=O)(=O)Nc1cccc(-n2c(=O)c3nccn3c3ccc(Cl)cc32)c1` [Example 44, N-(3-(7-chloro-4-oxoimidazo[1,2-a]quinoxalin-5(4H)-yl)phenyl)methanesulfonamide], the figure is 0.001 to 0.1 µM. `Cc1ncccc1-n1c(=O)c2nccn2c2c(OC(F)F)cc(C(F)(F)F)cc21` [Example 115, 9-(difluoromethoxy)-5-(2-methylpyridin-3-yl)-7-(trifluoromethyl)imidazo[1,2-a]quinoxalin-4(5H)-one] displayed an IC50 of 0.1 to 1 µM. As for `CCOc1ccc2c(c1)n(-c1cccc(F)c1C)c(=O)c1nccn12` [Example 31, 7-ethoxy-5-(3-fluoro-2-methylphenyl)imidazo[1,2-a]quinoxalin-4(5H)-one], the figure is more than 10 µM. Under `Cc1cccc(C)c1-n1c(=O)c2nccn2c2ccc(Cl)cc21` [Example 51, 7-chloro-5-(2,6-dimethylphenyl)imidazo[1,2-a]quinoxalin-4(5H)-one] stands more than 10 µM. As for `Cc1cccnc1-n1c(=O)c2nccn2c2ccc(Cl)cc21` [Example 53, 7-chloro-5-(3-methylpyridin-2-yl)imidazo[1,2-a]quinoxalin-4(5H)-one], the figure is more than 10 µM.

As for `Cc1ccccc1-n1c(=O)c2nccn2c2cc(Br)c(Cl)cc21` [Example 72, 8-bromo-7-chloro-5-(o-tolyl)imidazo[1,2-a]quinoxalin-4(5H)-one], the IC50 is 1 to 10 µM. Under `Cc1ncccc1-n1c(=O)c2nccn2c2c(N(C)C)cc(Cl)cc21` [Example 106, 7-chloro-9-(dimethylamino)-5-(2-methylpyridin-3-yl)imidazo[1,2-a]quinoxalin-4(5H)-one] stands more than 10 µM; under `Cc1ncccc1-n1c(=O)c2nccn2c2cc(Cl)c(C(F)(F)F)cc21` (atropisomer, axis not shown; (Ra)) [Example 97, (Ra)-8-chloro-5-(2-methylpyridin-3-yl)-7-(trifluoromethyl)imidazo[1,2-a]quinoxalin-4(5H)-one], more than 10 µM.

Take `Cc1ccccc1-n1c(=O)c2nccn2c2ccc(F)cc21` [Example 41, 7-fluoro-5-(o-tolyl)imidazo[1,2-a]quinoxalin-4(5H)-one]: the IC50 fell in the range of 1 to 10 µM. As for `N#Cc1ccccc1-n1c(=O)c2nccn2c2ccc(Cl)cc21` [Example 43, 2-(7-chloro-4-oxoimidazo[1,2-a]quinoxalin-5(4H)-yl)benzonitrile], the figure is more than 10 µM; as for `Cc1c(F)cccc1-n1c(=O)c2nccn2c2ccc(OCC(F)(F)F)cc21` [Example 29, 5-(3-fluoro-2-methylphenyl)-7-(2,2,2-trifluoroethoxy)imidazo[1,2-a]quinoxalin-4(5H)-one], more than 10 µM; as for `O=c1c2nccn2c2ccc(Cl)cc2n1-c1ccccc1F` [Example 12, 7-chloro-5-(2-fluorophenyl)imidazo[1,2-a]quinoxalin-4(5H)-one], more than 10 µM. `Cn1nccc1-n1c(=O)c2nccn2c2cc(Cl)c(Br)cc21` [Example 83, 7-bromo-8-chloro-5-(1-methyl-1H-pyrazol-5-yl)imidazo[1,2-a]quinoxalin-4(5H)-one] yielded a concentration for half-maximal inhibition (IC50) of 1 to 10 µM.

With `Cc1ncccc1-n1c(=O)c2nccn2c2cc(C(F)(F)F)c(Br)cc21` [Example 76, 7-bromo-5-(2-methylpyridin-3-yl)-8-(trifluoromethyl)imidazo[1,2-a]quinoxalin-4(5H)-one], the IC50 is more than 10 µM.

`Cc1cc2c(cc1C(F)(F)F)n(-c1cccnc1C)c(=O)c1nccn12` (atropisomer, axis not shown; (Ra)) [Example 94, (Ra)-8-methyl-5-(2-methylpyridin-3-yl)-7-(trifluoromethyl)imidazo[1,2-a]quinoxalin4(5H)-one] registered an IC50 of more than 10 µM. As for `Cc1ncccc1-n1c(=O)c2nccn2c2cc(C(F)F)c(Br)cc21` [Example 82, 7-bromo-8-(difluoromethyl)-5-(2-methylpyridin-3-yl)imidazo[1,2-a]quinoxalin-4(5H)-one], the figure is more than 10 µM. As for `Cc1ccccc1-n1c(=O)c2nccn2c2cnc(Cl)cc21` [Example 42, 3-chloro-5-(o-tolyl)imidazo[1,2-a]pyrido[4,3-e]pyrazin-6(5H)-one], the figure is more than 10 µM; as for `Cc1ncccc1-n1c(=O)c2nc(CN3CCN(C)CC3)cn2c2ccc(Cl)cc21` [Example 61, 7-chloro-2-((4-methylpiperazin-1-yl)methyl)-5-(2-methylpyridin-3-yl)imidazo[1,2-a]quinoxalin-4(5H)-one], more than 10 µM. As for `Cc1ncccc1-n1c(=O)c2nccn2c2c(OCC(F)(F)F)cc(C(F)(F)F)cc21` [Example 117, 5-(2-methylpyridin-3-yl)-9-(2,2,2-trifluoroethoxy)-7-(trifluoromethyl)imidazo[1,2-a]quinoxalin-4(5H)-one], the figure is 0.001 to 0.1 µM; as for `CCOc1cc(C(F)(F)F)cc2c1n1ccnc1c(=O)n2-c1cccnc1C` [Example 118, 9-ethoxy-5-(2-methylpyridin-3-yl)-7-(trifluoromethyl)imidazo[1,2-a]quinoxalin-4(5H)-one], 0.001 to 0.1 µM. Regarding `O=c1c2nccn2c2ccc(Cl)cc2n1-c1ccccc1OC(F)(F)F` [Example 50, 7-chloro-5-(2-(trifluoromethoxy)phenyl)imidazo[1,2-a]quinoxalin-4(5H)-one], the IC50 lay in the range of 1 to 10 µM.

These data come from patent EP4759814A1, “TRICYCLIC COMPOUND AND USE THEREOF AS MAT2A INHIBITOR” (SK Biopharmaceuticals Co., Ltd., priority 2023, dated 2025).
